Experimental data taken from ChEMBL document CHEMBL5512610, “Drug discovery and optimization based on the co-crystal structure of natural product with target” (Eur J Med Chem, 2024).

Legend:
[1] = Cytotoxicity against HUVEC cells assessed as inhibition of cell growth incubated for 72 hrs by MTT assay; format: toxicity, cell-based; conditions: human
[2] = Cytotoxicity against human ARPE-19 cells assessed as cell growth inhibition incubated for 72 hrs by MTT assay; format: toxicity, cell-based
[3] = Binding affinity to actin (unknown origin) assessed as dissociation constant; parameters: species or system Homo sapiens
A549 = assay: Growth inhibition of human A549 cells incubated for 72 hrs by MTT assay; format: functional
HepG2 = assay: Cytotoxicity against human HepG2 cells assessed as reduction in cell growth; format: functional, cell-based
[4] = Oral bioavailability in mouse; format: ADME, organism-based; conditions: in vivo
NCI-N87 = assay: Antitumor activity against human NCI-N87 cells assessed as reduction in cell growth; format: functional, cell-based
[5] = biological target: T1, Cyclin-dependent kinase 9 (Homo sapiens, UniProt P50750); assay: Inhibition of CDK9 (unknown origin)
T1 sequence (P50750 whole entry): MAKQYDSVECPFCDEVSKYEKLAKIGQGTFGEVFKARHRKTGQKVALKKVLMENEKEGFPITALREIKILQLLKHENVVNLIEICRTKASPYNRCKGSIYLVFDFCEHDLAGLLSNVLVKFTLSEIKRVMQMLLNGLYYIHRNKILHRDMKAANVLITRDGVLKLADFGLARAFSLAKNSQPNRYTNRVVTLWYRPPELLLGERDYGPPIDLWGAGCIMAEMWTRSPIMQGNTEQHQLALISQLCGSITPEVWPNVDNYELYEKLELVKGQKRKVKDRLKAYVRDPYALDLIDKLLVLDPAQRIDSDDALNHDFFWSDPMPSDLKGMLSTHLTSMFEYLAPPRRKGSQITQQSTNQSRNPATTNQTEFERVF

Plasmodium falciparum = assay: Antiplasmodial activity against Plasmodium falciparum K1 assessed as reduction in parasite growth; format: functional, organism-based
[6] = biological target: T1, Cyclin-dependent kinase 9; assay: Inhibition of human recombinant CDK9 (773 to 928 residues) expressed in insect cells; parameters: species or system Insect cell
[7] = biological target: Cyclin-dependent kinase 2 (Homo sapiens, UniProt P24941); assay: Inhibition of CDK2 (unknown origin)
MRC5 [8] = assay: Cytotoxicity against human MRC5 cells assessed as reduction in cell viability; format: functional, cell-based
Hepatitis C virus = assay: Antiviral activity against Hepatitis C virus genotype 1b infected in human Huh-7 cells assessed as reduction in viral infection; format: functional, organism-based, Hepacivirus hominis
MRC5 [9] = assay: Antiproliferative activity against human MRC5 cells assessed inhibition of cell growth incubated for 48 hrs by MTT assay; format: functional, cell-based; conditions: MRC5, 48 h

For `C=CCNC1=C2C[C@@H](C)C[C@H](OC)[C@H](O)[C@@H](C)/C=C(\C)[C@H](OC(N)=O)[C@@H](OC)/C=C\C=C(/C)C(=O)NC(=C(c3ccccc3)C1=O)C2=O` (stereo in doubt), the IC50 at 72 h [1] was > 20000 nM and the IC50 at 72 h [2] was > 20000 nM.
With `C=CCC1CC[C@H](C)[C@H](CC(=O)NC[C@H](O)[C@H](C)C(=O)NCCC[C@H]2O[C@@]3(CCC[C@@H](CC[C@H](C)C=C)O3)CC[C@@H]2C)O1` (stereo partly drawn) the Kd [3] was 39 nM and the GI50 (A549) was 11200 nM.
With `C/C=C/C(=O)C[C@H]1CC[C@H](C)[C@H](CC(=O)NC[C@H](O)[C@H](C)C(=O)NCCC[C@H]2O[C@@]3(CCC[C@@H](CC[C@@H](C)/C=C(\C)[C@@H](C)O)O3)CC[C@@H]2C)O1` the Kd [3] was 7 nM and the GI50 (A549) was 20.4 nM.
In the case of `CC[C@]1(NC(N)=O)[C@@H](N)[C@H](Nc2cccc(C(C)=O)c2)[C@](O)(COC(=O)c2c(C)cccc2O)[C@]1(C)O`, the IC50 (HepG2) is reported as > 9500 nM.
For `C=CCC[C@@H]1CCC[C@]2(CC[C@H](C)[C@@H](CCCNC(=O)[C@@H](C)[C@@H](O)CNC(=O)C[C@@H]3OC(CC(=O)/C=C/C)CC[C@@H]3C)O2)O1` (stereo partly drawn), the Kd [3] was 1500 nM and the GI50 (A549) was 323 nM.
In the case of `CC(=O)N(C)[C@H](C(=O)N1C[C@H](C)C[C@H]1C(=O)N(C)[C@@H]1C(=O)N[C@@H](CC(C)C)C(=O)N2C[C@H](C)C[C@H]2C(=O)N[C@@H](CC(C)C)C(=O)N(C)[C@@H](C(C)C)C(=O)N2CC(C3CCCCC3)C[C@H]2C(=O)N(C)[C@H](CC(C)C)C(=O)NCC(=O)O[C@@H]1C)C(C)C` (stereo partly drawn), the bioavailability [4] is reported as 89%.
Molecule `COCCC(=O)NC[C@H](O)[C@H](C)C(=O)NCCC[C@H]1O[C@@]2(CCC[C@@H](CC[C@@H](C)/C=C(\C)[C@@H](C)O)O2)CC[C@@H]1C` has a Kd [3] of 9 nM.
With `C=CCNC1=C2C[C@@H](C)C[C@H](OC)[C@H](O)[C@@H](C)/C=C(\C)[C@H](OC(N)=O)[C@@H](OC)/C=C\C=C(/C)C(=O)NC(=C(C)C1=O)C2=O` (stereo in doubt) the IC50 at 72 h [1] was > 20000 nM and the IC50 at 72 h [2] was > 20000 nM.
Work on `CO[C@H]1/C=C\C=C(/C)C(=O)NC2=CC(=O)C(NCCN(C)C)=C(C[C@@H](C)C[C@H](OC)[C@H](O)[C@@H](C)/C=C(\C)[C@@H]1OC(N)=O)C2=O` (stereo in doubt) [ALVESPIMYCIN] yielded an EC50 (NCI-N87) of 62 nM.
`Nc1nccc(-c2c[nH]c3ncccc23)n1` [MERIOLIN 1] gave an IC50 [5] of 10000 nM.
`C=C[C@H](C)CCC[C@@H]1CCC[C@]2(CC[C@H](C)[C@@H](CCCNC(=O)[C@@H](C)[C@@H](O)CNC(=O)C[C@@H]3OC(CC(=O)/C=C/C)CC[C@@H]3C)O2)O1` (stereo partly drawn) showed a Kd [3] of 70 nM and a GI50 (A549) of 87.1 nM.
For `CC(=O)c1cccc(N[C@H]2[C@H](N)[C@](C)(NC(=O)N(C)C)[C@@](C)(O)[C@@]2(O)CO)c1`, the IC50 (Plasmodium falciparum) was 62 nM.
Work on `CC(=O)N(C)[C@H](C(=O)N1C[C@H](C)C[C@H]1C(=O)N(C)[C@@H]1C(=O)N[C@@H](CC(C)C)C(=O)N2C[C@H](C)C[C@H]2C(=O)N[C@@H](CC(C)C)C(=O)N(C)[C@@H](C(C)C)C(=O)N2CC(C)C[C@H]2C(=O)N(C)[C@H](CC(C)C)C(=O)NCC(=O)O[C@@H]1C)C(C)C` (stereo partly drawn) yielded a bioavailability [4] of 47%.
With `CC[C@]1(NC(N)=O)[C@@H](N)[C@H](Nc2cccc(C(C)=O)c2)[C@](O)(CO)[C@]1(C)O` the IC50 (HepG2) was > 5600 nM.
With `Nc1nccc(-c2c3cccnc3n3c(N)nccc23)n1` the IC50 [6] was 26 nM.
In the case of `CO[C@H]1/C=C\C=C(/C)C(=O)NC2=C(C)C(=O)C(NCCN(C)C)=C(C[C@@H](C)C[C@H](OC)[C@H](O)[C@@H](C)/C=C(\C)[C@@H]1OC(N)=O)C2=O` (stereo in doubt), the IC50 at 72 h [1] is reported as > 20000 nM and the IC50 at 72 h [2] is reported as > 20000 nM.
Molecule `Nc1nccc(-c2c[nH]c3nccc(O)c23)n1` [MERIOLIN 2] has an IC50 [7] of 3100 nM and an IC50 [5] of 2600 nM.
In the case of `C=C[C@@H](C)CC[C@@H]1CCC[C@]2(CC[C@H](C)[C@@H](CCCNC(=O)[C@@H](C)[C@@H](O)CNC(=O)CCOC)O2)O1`, the Kd [3] is reported as 43 nM and the GI50 (A549) is reported as 15100 nM.
For `CC[C@]1(NC(=O)N(C)C)[C@@H](N)[C@H](Nc2cccc(C(C)=O)c2)[C@](O)(CO)[C@]1(C)O`, the IC50 (MRC5 [8]) was 5.6 nM.
Work on `CC(=O)c1cccc(N[C@H]2[C@H](N)[C@](C)(NC(=O)N(C)C)[C@@](C)(O)[C@@]2(O)COC(=O)c2c(C)cccc2O)c1` yielded an IC50 (Plasmodium falciparum) of 77 nM.
`CC[C@H]1C[C@H](C)[C@@]2(NC1=O)O[C@@H](C[C@H](O)[C@@H](C)CC/C=C/C=C(\C)[C@@H]1C/C=C/C=C/[C@H](O)[C@H](C)[C@@H](O)[C@@H](CCC(C)=O)C(=O)N[C@@H](C(C)C)C(=O)N[C@@H](Cc3cccc(O)c3)C(=O)N3CCC[C@H](N3)C(=O)O1)[C@H](C)[C@H](O)[C@@H]2C` [SANGLIFEHRIN A] gave an EC50 (Hepatitis C virus) of 87 nM.
Molecule `CC(=O)c1cccc(N[C@H]2[C@H](N)[C@@](NC(=O)N(C)C)([C@H](C)O)[C@@](C)(O)[C@@]2(O)COC(=O)c2c(C)cccc2O)c1` [PACTAMYCIN] has an IC50 (MRC5 [9]) of 95 nM, an IC50 (Plasmodium falciparum) of 187 nM and an IC50 (HepG2) of 86 nM.
